Measurements reported in patent USRE47475E1, “Selective agents for pain suppression” (WiSys Technology Foundation, Inc., priority 2002, dated 2019).

Columns and labels:
[1] = tested on: Sciatic Ligation neuropathic pain; test: T23 partial ligation of the sciatic nerve (mechanical allodynia); assay type: in vivo, rats; settings: dose 35.5 (HZ-166), 18 (JY-XHE-053), 1 (XLI-JY-DMH) mg/kg; TPE 2 hr
Protocol: Neuropathic pain. The pro- or antinociceptive effects of the compounds of the present invention are analyzed in two manners. […] Sterile technique will be used throughout the surgery. The upper thigh will be shaved and wiped off with ethanol and betadine. A small incision will then be made in the skin. The underlying muscle of the upper thigh will be separated and the sciatic nerve exposed. The nerve is separated from the surrounding connective tissue and slightly elevated by a pair of fine, curved forceps. Approximately ⅓ to ½ of the nerve is tied off by passing a needle (7.0) and nylon suture through the nerve. The muscle and skin incision are closed off separately with 5.0 suture and the animals kept warm until they have recovered from the anesthesia. This procedure is routinely done on the right side (ipsilateral) while a sham surgery is performed on the left hind leg (contralateral). The latter involves a similar procedure with the exception that the sciatic nerve on this side is only exposed. The rats will be closely monitored daily for the development of infection or untoward effects of the surgery in which case the animals will be immediately euthanized
After an appropriate time for recovery (7 days) the animals will be tested for the development of mechanical allodynia (abnormal response to a non-noxious stimulus). The animals are each put in a bottomless plexiglass box placed on a wire mesh (¼″) platform. After 30-60 minutes in which to acclimate, a baseline mechanical sensitivity is determined. This procedure is done by applying a series of calibrated Von Frey fibres perpendicularly to the plantar surface of each hind paw and holding it there for about 6 secs with enough force to slightly bend the fibre. After a positive response (withdrawal of the foot) is noted a weaker fibre is applied. This is repeated until a 50% threshold for withdrawal can be determined
The allodynic threshold is then redetermined after intraperitoneal administration of an investigational AED. Testing will be conducted at the time-to-peak effect of the AED as determined in the acute seizure model.

[2] = tested on: neuropathic pain after CCI of the sciatic nerve; test: chronic constriction injury (CCI) model, mechanical sensitization (von Frey filaments); assay type: in vivo, mice
Protocol: In addition, the pro- or antinociceptive effects of the compounds of the present invention are analyzed in the chronic constriction injury (CCI) model. The GABAA receptor subunit selective test compounds of the present invention are analysed in the CCI model in 7-8-week-old C57BL/6 mice. See Bennett, G. J. & Xie, Y. K. A peripheral mononeuropathy in rat that produces disorders of pain sensation like those seen in man. […] Seven to eight week old mice are anesthetized with isofluran. Unilateral constriction injury of the left sciatic nerve just proximal to the trifurcation is performed with three loose ligatures. In sham-operated animals the sciatic nerve is exposed and the connective tissue is freed, but no ligatures are applied. […] Heat hyperalgesia, cold allodynia and mechanical sensitization are assessed 7-9 days after surgery. Mechanical sensitivity is assessed with electronic von Frey filaments (IITC).
Pain studies—Neuropathic pain: HZ166 and gabapentin were analyzed in the chronic constriction injury (CCI) model. Unilateral constriction injury of the left sciatic nerve just proximal to the trifurcation was performed as described previously (Bennett and Xie, 1988). Anesthesia was induced and maintained by 2% isoflurane, combined with oxygen (30%). The sciatic nerve was exposed at the mid-thigh level proximal to the sciatic trifurcation by blunt dissection through the biceps femoris muscle. […] of nerve were freed of adhering tissue and three chromic gut ligatures (4/0) (Ethicon) were loosely put around the nerve with about 1 mm spacing. The ligatures were tied until they elicited a brief twitch in the hindlimb. The surgical wound was closed in layers. Heat hyperalgesia and mechanical sensitization were assessed 7-16 days after surgery.
Pain Studies—Mechanical sensitization: Mechanical sensitivity was assessed with dynamic von Frey filaments (IITC, Woodland Hills, Calif.). 4-5 measurements were made for each time point and animal and averaged. Measurements of paw withdrawal thresholds of the injured paw and of the contralateral paw were made alternately.
Statistical Analysis: For all different doses and vehicle, baseline paw withdrawal thresholds/latencies on day 7 after nerve ligation or on day 2 after zymosan A injection were subtracted from all later withdrawal thresholds and the area under the curve (AUC) was calculated. Drug effects were expressed as percent maximum possible effect (MPE) calculated from comparisons of paw withdrawal latencies or thresholds obtained prior to surgery or inflammation and before and after drug treatment. […] Unless otherwise indicated, statistical comparisons were made with one-way analysis of variance (ANOVA) followed by Scheffe's post hoc test. P values<0.05 were considered significant.

[3] = tested on: motor coordination of mice; test: rotarod test (motor impairment); assay type: in vivo; settings: HZ166 16 and 48 mg/kg, gabapentin 10 and 30 mg/kg, i.p., 60 min after treatment
Protocol: Motor impairment: A possible impairment of motor function was analyzed in the rotarod test. Mice were trained on the rotarod (diameter 3 cm, 2 rpm) for 2 days. Animals capable of remaining on the rotarod in the absence of treatment for at least 2 min were selected for drug testing. On the test day, the latency to fall off the rod was recorded before and 60 minutes after treatment with vehicle, HZ166 or gabapentin.

[4] = tested on: locomotor activity of mice; test: spontaneous locomotor activity (activity cage); assay type: in vivo
Protocol: Locomotor activity: Spontaneous locomotor activity was tested using a commercially available microprocessor equipped activity cage (actiframe, Gerb Elektronik). Mice were placed in the activity cage 15 min before testing. Locomotor activity was measured for 1 h after intraperitoneal administration of vehicle, gabapentin or HZ166 during the early light phase of the day-night cycle.

[5] = tested on: neuropathic pain after CCI of the sciatic nerve; test: tolerance development in the CCI model (chronic treatment); assay type: in vivo, mice; settings: for tolerance development / loss of antihyperalgesic activity: 9-day treatment period in neuropathic mice
Protocol: Tolerance development: Possible development of tolerance against the antihyperalgesic effect of HZ166 was investigated in the CCI model. Starting from day 7 after CCI surgery, HZ166 at the dose of 16 mg/kg or vehicle were administered intraperitoneally once daily for 9 consecutive days. On day 10, each group (vehicle and HZ166) was subdivided in 2 subgroups: one received vehicle and the other HZ166 at the dose of 16 mg/kg. After the last injection, mechanical sensitivity was assessed for 3 hours.

[6] = tested on: seizures; settings: Rivas et al., 2009, cited from earlier work

For C#Cc1ccc2c(c1)C(c1ccccn1)=NCc1c(C(=O)OCC)ncn1-2 [HZ-166, 8-Acetylenyl-6-pyridin-2-yl-4H-benzo[f]imidazo[1,5-a][1,4]diazepine-3-carboxylic acid ethyl ester], the “Change (% of Control) ± SEM, T23 Sciatic Ligation” value [1] was 210 % of Control, the “Significance, T23 Sciatic Ligation” value [1] was “yes” and the “analgesia, mechanical sensitivity (von Frey) in CCI model” value ([2]; 48 mg/kg, 160 mg/kg and 480 mg/kg i.p.) was “significant analgesia”. For the same compound, the “AUC of mechanical PWT, HZ166 followed by vehicle” value ([2]; HZ166 16 mg/kg i.p., vehicle 45 min later, n=6) was 1.90 ± 0.29 g·h, the ED50 ([2]; Mus musculus, ip, 168 h, i.p., day 7 after CCI surgery, Hill fit, read-out: ED50, increase of ipsilateral PWT) was 3.83 ± 0.94 mg/kg and the “reversal of mechanical hypersensitivity” value ([2]; i.p., CCI model) was “dose-dependent reversal”. For the same compound, the “PWTs of the contralateral paw” value ([2]; i.p., day 7 after CCI surgery) was “not affected”, the “time of maximum effect on ipsilateral PWT after injection” value ([2]; i.p., day 7 after CCI surgery) was “about 1 h” and the “doses at which saturation of the antihyperalgesic effect was reached” value ([2]; i.p., mechanical PWT) was at least 160 mg/kg. For the same compound, the “doses with statistically significant antihyperalgesic effects” value ([2]; i.p., mechanical PWT) was at least 16 mg/kg, the “analgesic effects in the chronic constriction injury model of neuropathic pain” value ([2]; mouse, in vivo) was “analgesic effects” and the “interfered with rotarod performance” value [3] was “Neither”. The “impairment of spontaneous motor activity” value ([4]; 16 and 48 mg/kg i.p.) was “did not significantly impair”, the “doses that did not impair spontaneous locomotor activity” value ([4]; i.p.) was at most 48 mg/kg and the sedation ([4]; mouse model of neuropathic pain study) was “not sedating”. The “analgesic activity in mice chronically exposed to HZ166 versus drug-naïve mice” value ([5]; 16 mg/kg once daily for 9 days from day 7 after CCI, test on day 10) was “virtually the same”, the “tolerance development / loss of antihyperalgesic activity” value [5] was “did not develop tolerance” and the “tolerance development / loss of antihyperalgesic activity” value ([5]; listed as HZ166) was “no loss”. The toxicity [6] was “minimal” and the anticonvulsive activity ([6]; at non-sedative doses) was “good anticonvulsive activity”.
